According to DBAASP:
In brackets after ≈: the same amount, converted by molar mass. Blank lines part the entries; values can stand above or below the compound they belong to.

Legend:
Assay in all cases: ≥ marks a high value that may be exact or a test limit, other limits are often not marked, values filed in µg/mL are converted to µM
Streptococcus sanguinis = system: Streptococcus sanguinis
Staphylococcus aureus = system: Staphylococcus aureus
[1] = system: Staphylococcus aureus ATCC 29213
[2] = system: Staphylococcus epidermidis ATCC 12228
[3] = system: Candida albicans ATCC 90028
[4] = system: Candida glabrata ATCC 90030
[5] = system: Enterococcus faecalis ATCC 4028
[6] = system: Pseudomonas aeruginosa ATCC 27853
Candida krusei ATCC 6258 = system: Candida krusei ATCC 6258
[7] = system: Escherichia coli ATCC 25922
[8] = system: Enterobacter cloacae ATCC 13047
[9] = system: Staphylococcus aureus ATCC 43300
[10] = system: Enterococcus faecium ATCC BAA-2316
[11] = system: Enterococcus faecalis ATCC BAA-2365
[12] = system: Enterococcus faecalis ATCC 19433
[13] = system: Staphylococcus aureus ATCC 33591
[14] = system: Pseudomonas aeruginosa PAO1
[15] = system: Staphylococcus aureus USA 300
[16] = system: Enterococcus faecalis ATCC 29212
[17] = system: Staphylococcus aureus ATCC BAA-41
[18] = system: Staphylococcus aureus ATCC 9144
[19] = system: Acinetobacter baumannii ATCC 17978
[20] = system: Escherichia coli NCTC 12923
[21] = system: Klebsiella pneumoniae NCTC 13368
[22] = system: Agrobacterium tumefaciens GV3101
Xanthomonas citri = system: Xanthomonas citri
Methylobacterium sp. = system: Methylobacterium sp.
[23] = system: Sinorhizobium meliloti USDA 1002
[24] = system: Micrococcus luteus VKM B-1314
Acinetobacter baumannii = system: Acinetobacter baumannii
[25] = system: Bacillus megaterium VKM41
[26] = system: Staphylococcus aureus 209P
[27] = system: Bacillus subtilis VKM B-886
Escherichia coli ML-35p = system: Escherichia coli ML-35p
Escherichia coli C600 = system: Escherichia coli C600
[28] = system: Escherichia coli BL21(DE3)
[29] = system: Salmonella enterica subsp. enterica serovar Typhimurium ATCC 14028
Escherichia coli UTI89 = system: Escherichia coli UTI89
[30] = system: Escherichia coli K12 MG1655
[31] = system: Staphylococcus epidermidis
[32] = system: Candida albicans ATCC 90029
[33] = system: Salmonella enterica subsp. enterica serovar Pullorum CVCC 3533
[34] = system: Salmonella enterica subsp. enterica serovar Pullorum
Escherichia coli = system: Escherichia coli
[35] = system: Escherichia coli ATCC 11775
[36] = system: Micrococcus luteus ATCC 49732
[37] = system: Staphylococcus aureus ATCC 12600
[38] = system: Candida albicans ATCC 14053

MIC (Streptococcus sanguinis): 8.3 µM (≈ 7.48 µg/mL)
MIC (Staphylococcus aureus): 14.3 µM (≈ 12.8 µg/mL)
Structure (SMILES): NC(=O)[C@H](Cc1ccccc1)NC(=O)[C@H](Cc1ccccc1)NC(=O)[C@H](Cc1ccccc1)NC(=O)[C@H](Cc1ccccc1)NC(=O)[C@H](Cc1ccccc1)NC(=O)[C@@H](N)Cc1ccccc1 [FFFFFF]

MIC [1]: 1.2 µM (≈ 2.37 µg/mL)
MIC [2]: 2.3 µM (≈ 4.55 µg/mL)
MIC [3]: 9.4 µM (≈ 18.6 µg/mL)
MIC [4]: 9.4 µM (≈ 18.6 µg/mL)
MIC [5]: 4.7 µM (≈ 9.3 µg/mL)
MIC [6]: 4.7 µM (≈ 9.3 µg/mL)
MIC (Candida krusei ATCC 6258): 9.4 µM (≈ 18.6 µg/mL)
MIC [7]: 2.3 µM (≈ 4.55 µg/mL)
MIC [8]: 18.8 µM (≈ 37.2 µg/mL)
Structure (SMILES): CC[C@H](C)[C@H](NC(=O)[C@H](CC(C)C)NC(=O)[C@H](CCCCN)NC(=O)[C@H](CCCCN)NC(=O)[C@@H](NC(=O)[C@H](CC(C)C)NC(=O)[C@H](CO)NC(=O)[C@@H]1CCCN1C(=O)[C@@H](NC(=O)[C@H](CC(C)C)NC(=O)[C@H](CO)NC(=O)[C@H](Cc1ccccc1)NC(=O)[C@@H](N)Cc1ccccc1)[C@@H](C)CC)C(C)C)C(=O)N[C@@H](CCCCN)C(=O)N[C@@H](C)C(=O)N[C@@H](Cc1ccccc1)C(=O)N[C@@H](CCCCN)C(N)=O [FFSLIPSLVKKLIKAFK]

Structure (SMILES): CC[C@H](C)[C@H](NC(=O)[C@H](C)NC(=O)[C@H](CCCCN)NC(=O)[C@H](CCCN=C(N)N)NC(=O)[C@@H](NC(=O)[C@H](CC(C)C)NC(=O)[C@H](CO)NC(=O)[C@H](Cc1ccccc1)NC(=O)[C@H](CC(C)C)NC(=O)[C@@H](N)Cc1ccccc1)[C@@H](C)CC)C(=O)NCC(=O)NCC(=O)N[C@@H](CC(C)C)C(=O)N[C@H](C(=O)N[C@@H](CO)C(=O)N[C@@H](C)C(=O)N[C@@H](Cc1ccccc1)C(=O)N[C@@H](CCCCN)C(=O)O)[C@@H](C)CC [FLFSLIRKAIGGLISAFK]
MIC [1]: 5 µM (≈ 9.91 µg/mL)
MIC [9]: 5 µM (≈ 9.91 µg/mL)
MIC [2]: 2.5 µM (≈ 4.95 µg/mL)
MIC [10]: 15 µM (≈ 29.7 µg/mL)
MIC [11]: 5 µM (≈ 9.91 µg/mL)
MIC [12]: 12.5 µM (≈ 24.8 µg/mL)
MIC [13]: 5 µM (≈ 9.91 µg/mL)
MIC [14]: > 64.6 µM
MIC [15]: 16.1 µM (≈ 32 µg/mL)
MIC [16]: 10 µM (≈ 19.8 µg/mL)
MIC [17]: 5 µM (≈ 9.91 µg/mL)
MIC [18]: 8.07 µM (≈ 16 µg/mL)
MIC [19]: 4.04 µM (≈ 8 µg/mL)
MIC [20]: ≥ 64.6 µM
MIC [21]: ≥ 64.6 µM

MIC [22]: ≥ 64 µM
MIC (Xanthomonas citri): ≥ 32 µM
MIC (Methylobacterium sp.): ≥ 64 µM
MIC [23]: ≥ 64 µM
Structure (SMILES): CC[C@H](C)[C@H](N)C(=O)N[C@@H](CCC(=O)O)C(=O)N[C@H](C(=O)N[C@@H](Cc1ccccc1)C(=O)N[C@@H](CC(C)C)C(=O)N[C@@H](CCCCN)C(=O)N[C@@H](CCC(N)=O)C(=O)N[C@@H](CC(C)C)C(=O)N[C@@H](CCCN=C(N)N)C(=O)N[C@@H](CO)C(=O)N[C@@H](C)C(=O)N[C@@H](C)C(=O)N[C@@H](CC(N)=O)C(=O)N[C@@H](CCCCN)C(=O)N[C@H](C(=O)N[C@H](C(=O)NCC(=O)N[C@@H](CC(C)C)C(=O)O)C(C)C)[C@@H](C)CC)[C@@H](C)O [IETFLKQLRSAANKIVGL]

MIC [24]: 16 µM (≈ 28.2 µg/mL)
MIC [1]: > 128 µM
MIC (Acinetobacter baumannii): ≥ 64 µM
MIC [25]: 16 µM (≈ 28.2 µg/mL)
MIC [26]: 16 µM (≈ 28.2 µg/mL)
MIC [14]: > 128 µM
MIC [27]: 16 µM (≈ 28.2 µg/mL)
MIC (Escherichia coli ML-35p): ≥ 64 µM
MIC (Escherichia coli C600): ≥ 64 µM
MIC [28]: ≥ 64 µM
Structure (SMILES): CC[C@H](C)[C@H](N)C(=O)N[C@@H](CCCCN)C(=O)N[C@@H](CC(N)=O)C(=O)N[C@@H](C)C(=O)N[C@@H](CCCCN)C(=O)N[C@H](C(=O)N[C@H]1CSSC[C@@H](C(=O)N[C@H](C(=O)N[C@@H](CO)C(=O)N[C@@H](Cc2cnc[nH]2)C(=O)N[C@@H](CCCCN)C(=O)O)C(C)C)NC(=O)[C@H](C(C)C)NC(=O)[C@H](C)NC(=O)[C@H](Cc2ccc(O)cc2)NC(=O)[C@H](C(C)C)NC1=O)C(C)C [IKNAKVCVYAVCVSHK]

MIC [29]: 29 µM (≈ 54.4 µg/mL)
MIC (Escherichia coli UTI89): 6.25 µM (≈ 11.7 µg/mL)
MIC [30]: 7 µM (≈ 13.1 µg/mL)
MIC [31]: ≥ 50 µM
Structure (SMILES): CC[C@H](C)[C@H](NC(=O)[C@H](CCCN=C(N)N)NC(=O)[C@H](CCC(N)=O)NC(=O)[C@H](Cc1c[nH]c2ccccc12)NC(=O)[C@@H](NC(=O)[C@H](CCCCN)NC(=O)[C@@H](N)CCCCN)[C@@H](C)CC)C(=O)N[C@@H](CCCCN)C(=O)N[C@@H](CC(N)=O)C(=O)N[C@@H](Cc1ccccc1)C(=O)N[C@@H](Cc1ccccc1)C(=O)N[C@@H](CCC(N)=O)C(=O)N[C@@H](CCCCN)C(=O)N[C@@H](CC(C)C)C(=O)O [KKIWQRIKNFFQKL]

MIC [1]: 18.2 µM (≈ 25 µg/mL)
MIC (Staphylococcus aureus): 18.2 µM (≈ 25 µg/mL)
MIC [32]: ≥ 36.3 µM
MIC [33]: 4.54 µM (≈ 6.25 µg/mL)
MIC [34]: 4.54 µM (≈ 6.25 µg/mL)
MIC (Escherichia coli): 18.2 µM (≈ 25 µg/mL)
MIC [7]: 9.08 µM (≈ 12.5 µg/mL)
Structure (SMILES): CC(C)C[C@H](NC(=O)[C@H](CCCCN)NC(=O)[C@H](Cc1cnc[nH]1)NC(=O)[C@H](CCCCN)NC(=O)[C@H](CC(C)C)NC(=O)[C@H](CC(C)C)NC(=O)[C@@H](N)CCCCN)C(=O)N[C@@H](CC(C)C)C(=O)N[C@H](C(=O)N[C@H](C(=O)N[C@@H](CC(C)C)C(=O)N[C@@H](C)C(=O)O)[C@@H](C)O)C(C)C [KLLKHKLLVTLA]

MIC [35]: ≥ 128 µM
MIC [36]: ≥ 36 µM
MIC [37]: ≥ 967 µM
MIC [38]: ≥ 36 µM
Structure (SMILES): C[C@H](NC(=O)[C@H](C)NC(=O)[C@@H](NC(=O)CNC(=O)[C@@H]1CCCN1)[C@@H](C)O)C(=O)N[C@@H](Cc1ccccc1)C(=O)N[C@@H](CCCCN)C(=O)O [PGTAAFK]
